Measurements from ChEMBL document CHEMBL1150930, “Metabolism of rosmarinic acid in rats” (J Nat Prod, 1998).

Tests used:
Assay type in all cases: ADME, organism-based, Urine
Parameters in all cases: dose 200 mg/kg, route oral
Settings in all cases: in vivo
Rattus norvegicus [1] = assay: Metabolic stability in Sprague-Dawley rat assessed as urinary excretion of trans-caffeic acid 4-O-sulfate level at 200 mg/kg, po after 0 to 4 hrs by HPLC
Rattus norvegicus [2] = assay: Metabolic stability in Sprague-Dawley rat assessed as urinary excretion of trans-caffeic acid 4-O-sulfate level at 200 mg/kg, po after 0 to 8 hrs by HPLC
Rattus norvegicus [3] = assay: Metabolic stability in Sprague-Dawley rat assessed as urinary excretion of trans-caffeic acid 4-O-sulfate level at 200 mg/kg, po after 0 to 12 hrs by HPLC
Rattus norvegicus [4] = assay: Metabolic stability in Sprague-Dawley rat assessed as urinary excretion of trans-caffeic acid 4-O-sulfate level at 200 mg/kg, po after 0 to 24 hrs by HPLC
Rattus norvegicus [5] = assay: Metabolic stability in Sprague-Dawley rat assessed as urinary excretion of trans-caffeic acid 4-O-sulfate level at 200 mg/kg, po after 0 to 36 hrs by HPLC
Rattus norvegicus [6] = assay: Metabolic stability in Sprague-Dawley rat assessed as urinary excretion of trans-caffeic acid 4-O-sulfate level at 200 mg/kg, po after 0 to 48 hrs by HPLC
Rattus norvegicus [7] = assay: Metabolic stability in Sprague-Dawley rat assessed as urinary excretion of trans-caffeic acid 4-O-sulfate level at 200 mg/kg, po after 0 to 72 hrs by HPLC
Rattus norvegicus [8] = assay: Metabolic stability in Sprague-Dawley rat assessed as urinary excretion of total metabolites at 200 mg/kg, po after 0 to 24 hrs by HPLC
Rattus norvegicus [9] = assay: Metabolic stability in Sprague-Dawley rat assessed as urinary excretion of total metabolites at 200 mg/kg, po after 0 to 12 hrs by HPLC
Rattus norvegicus [10] = assay: Metabolic stability in Sprague-Dawley rat assessed as urinary excretion of trans-m-coumaric acid 3-O-sulfate level at 200 mg/kg, po after 0 to 12 hrs by HPLC
Rattus norvegicus [11] = assay: Metabolic stability in Sprague-Dawley rat assessed as urinary excretion of trans-m-coumaric acid 3-O-sulfate level at 200 mg/kg, po after 0 to 24 hrs by HPLC
Rattus norvegicus [12] = assay: Metabolic stability in Sprague-Dawley rat assessed as urinary excretion of trans-m-coumaric acid 3-O-sulfate level at 200 mg/kg, po after 0 to 36 hrs by HPLC
Rattus norvegicus [13] = assay: Metabolic stability in Sprague-Dawley rat assessed as urinary excretion of trans-m-coumaric acid 3-O-sulfate level at 200 mg/kg, po after 0 to 48 hrs by HPLC
Rattus norvegicus [14] = assay: Metabolic stability in Sprague-Dawley rat assessed as urinary excretion of trans-m-coumaric acid 3-O-sulfate level at 200 mg/kg, po after 0 to 72 hrs by HPLC
Rattus norvegicus [15] = assay: Metabolic stability in Sprague-Dawley rat assessed as urinary excretion of trans-ferulic acid 4-O-sulfate level at 200 mg/kg, po after 0 to 4 hrs by HPLC
Rattus norvegicus [16] = assay: Metabolic stability in Sprague-Dawley rat assessed as urinary excretion of trans-ferulic acid 4-O-sulfate level at 200 mg/kg, po after 0 to 8 hrs by HPLC
Rattus norvegicus [17] = assay: Metabolic stability in Sprague-Dawley rat assessed as urinary excretion of trans-ferulic acid 4-O-sulfate level at 200 mg/kg, po after 0 to 12 hrs by HPLC
Rattus norvegicus [18] = assay: Metabolic stability in Sprague-Dawley rat assessed as urinary excretion of trans-ferulic acid 4-O-sulfate level at 200 mg/kg, po after 0 to 24 hrs by HPLC
Rattus norvegicus [19] = assay: Metabolic stability in Sprague-Dawley rat assessed as urinary excretion of trans-ferulic acid 4-O-sulfate level at 200 mg/kg, po after 0 to 36 hrs by HPLC
Rattus norvegicus [20] = assay: Metabolic stability in Sprague-Dawley rat assessed as urinary excretion of trans-ferulic acid 4-O-sulfate level at 200 mg/kg, po after 0 to 48 hrs by HPLC
Rattus norvegicus [21] = assay: Metabolic stability in Sprague-Dawley rat assessed as urinary excretion of trans-ferulic acid 4-O-sulfate level at 200 mg/kg, po after 0 to 72 hrs by HPLC
Rattus norvegicus [22] = assay: Metabolic stability in Sprague-Dawley rat assessed as urinary excretion of trans-caffeic acid level at 200 mg/kg, po after 0 to 4 hrs by HPLC
Rattus norvegicus [23] = assay: Metabolic stability in Sprague-Dawley rat assessed as urinary excretion of trans-caffeic acid level at 200 mg/kg, po after 0 to 8 hrs by HPLC
Rattus norvegicus [24] = assay: Metabolic stability in Sprague-Dawley rat assessed as urinary excretion of trans-caffeic acid level at 200 mg/kg, po after 0 to 12 hrs by HPLC
Rattus norvegicus [25] = assay: Metabolic stability in Sprague-Dawley rat assessed as urinary excretion of trans-caffeic acid level at 200 mg/kg, po after 0 to 24 hrs by HPLC
Rattus norvegicus [26] = assay: Metabolic stability in Sprague-Dawley rat assessed as urinary excretion of trans-caffeic acid level at 200 mg/kg, po after 0 to 36 hrs by HPLC

## O=C(/C=C/c1ccc(O)c(O)c1)O[C@H](Cc1ccc(O)c(O)c1)C(=O)O [ROSMARINIC ACID]
Rattus norvegicus [1]
  Activity: 0.038%
Rattus norvegicus [2]
  Activity: 0.124%
Rattus norvegicus [3]
  Activity: 0.139%
Rattus norvegicus [4]
  Activity: 0.149%
Rattus norvegicus [5]
  Activity: 0.154%
Rattus norvegicus [6]
  Activity: 0.154%
Rattus norvegicus [7]
  Activity: 0.154%
Rattus norvegicus [8]
  Activity: 23.143%
Rattus norvegicus [9]
  Activity: 6.241%
Rattus norvegicus [10]
  Activity: 0.174%
Rattus norvegicus [11]
  Activity: 7.456%
Rattus norvegicus [12]
  Activity: 11.778%
Rattus norvegicus [13]
  Activity: 12.137%
Rattus norvegicus [14]
  Activity: 12.137%
Rattus norvegicus [15]
  Activity: 0.081%
Rattus norvegicus [16]
  Activity: 0.284%
Rattus norvegicus [17]
  Activity: 0.462%
Rattus norvegicus [18]
  Activity: 0.538%
Rattus norvegicus [19]
  Activity: 0.559%
Rattus norvegicus [20]
  Activity: 0.581%
Rattus norvegicus [21]
  Activity: 0.581%
Rattus norvegicus [22]
  Activity: 0.01%
Rattus norvegicus [23]
  Activity: 0.027%
Rattus norvegicus [24]
  Activity: 0.037%
Rattus norvegicus [25]
  Activity: 0.063%
Rattus norvegicus [26]
  Activity: 0.086%
